# How the values were obtained:
# Assay in all cases: relative viability (nuclei count vs DMSO), 5 days (fraction); higher = more cells survive
# [1] = compound: COC1=CC=C(C=C1)CN2C=CC3=C2C=C(C=C3)C(=O)NO + CC(=O)Nc1cccc(-n2c(=O)n(C3CC3)c(=O)c3c(Nc4ccc(I)cc4F)n(C)c(=O)c(C)c32)c1 [Trametinib] (partner 0.02 µM)
# Procedure, shortened: (§1)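 Relative viability was taken as the ratio of nuclei in treated wells to nuclei in vehicle wells. Lung cancer cell lines in 1536-well plates received compounds by pin tool one day after seeding, either one drug alone or a fixed anchor-drug dose plus five library-drug doses (not always all listed) in √10 steps. Nuclei were counted on 4× images after 5 days of treatment, and values are medians of duplicate plates.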
# [2] = compound: COC1=CC=C(C=C1)CN2C=CC3=C2C=C(C=C3)C(=O)NO + CC(C)C[C@H](NC(=O)[C@H](Cc1ccccc1)NC(=O)c1cnccn1)B(O)O [Bortezomib] (partner 0.002 µM)
# Procedure, shortened: as §1
# [3] = compound: C[C@]1(c2nc3c(C(N)=O)cccc3[nH]2)CCCN1 [Veliparib] + CC1(C)CCC(c2ccc(Cl)cc2)=C(CN2CCN(c3ccc(C(=O)NS(=O)(=O)c4ccc(N[C@H](CCN5CCOCC5)CSc5ccccc5)c(S(=O)(=O)C(F)(F)F)c4)cc3)CC2)C1 [Navitoclax] (partner 0.5 µM)
# Procedure, shortened: as §1
# [4] = compound: C[C@]1(c2nc3c(C(N)=O)cccc3[nH]2)CCCN1 [Veliparib] + Cc1cc(Nc2cc(N3CCN(C)CC3)nc(Sc3ccc(NC(=O)C4CC4)cc3)n2)n[nH]1 [Tozasertib] (partner 0.1 µM)
# Procedure, shortened: as §1
cell line,measurement,setting,value
SW 1573,relative viability,[1]; first compound 0.253 µM,0.539
same,relative viability,[1]; first compound 0.8 µM,0.678
same,relative viability,[1]; first compound 2.53 µM,0.562
same,relative viability,[1]; first compound 8 µM,0.37
same,relative viability,[2]; first compound 0.253 µM,1.18
same,relative viability,[2]; first compound 0.8 µM,1.15
same,relative viability,[2]; first compound 2.53 µM,1.13
same,relative viability,[2]; first compound 8 µM,0.906
same,relative viability,[3]; first compound 0.02 µM,1.02
same,relative viability,[3]; first compound 0.06325 µM,0.934
same,relative viability,[3]; first compound 0.2 µM,1.1
same,relative viability,[3]; first compound 0.6325 µM,0.736
same,relative viability,[3]; first compound 2 µM,0.93
same,relative viability,[4]; first compound 0.06325 µM,0.175
same,relative viability,[4]; first compound 0.2 µM,0.17
same,relative viability,[4]; first compound 0.6325 µM,0.204
same,relative viability,[4]; first compound 2 µM,0.175

# Source: the supplement of paper PMC10307832
